In US9505781B2, “Compositions comprising thienopyrimidine and thienopyridine compounds and methods of use thereof” (The Regents of the University of Michigan, priority 2013, dated 2016):

biological target: T1, menin-MLL interaction (Homo sapiens, UniProt O00255); test: biochemical
T1 sequence (O00255 1-610): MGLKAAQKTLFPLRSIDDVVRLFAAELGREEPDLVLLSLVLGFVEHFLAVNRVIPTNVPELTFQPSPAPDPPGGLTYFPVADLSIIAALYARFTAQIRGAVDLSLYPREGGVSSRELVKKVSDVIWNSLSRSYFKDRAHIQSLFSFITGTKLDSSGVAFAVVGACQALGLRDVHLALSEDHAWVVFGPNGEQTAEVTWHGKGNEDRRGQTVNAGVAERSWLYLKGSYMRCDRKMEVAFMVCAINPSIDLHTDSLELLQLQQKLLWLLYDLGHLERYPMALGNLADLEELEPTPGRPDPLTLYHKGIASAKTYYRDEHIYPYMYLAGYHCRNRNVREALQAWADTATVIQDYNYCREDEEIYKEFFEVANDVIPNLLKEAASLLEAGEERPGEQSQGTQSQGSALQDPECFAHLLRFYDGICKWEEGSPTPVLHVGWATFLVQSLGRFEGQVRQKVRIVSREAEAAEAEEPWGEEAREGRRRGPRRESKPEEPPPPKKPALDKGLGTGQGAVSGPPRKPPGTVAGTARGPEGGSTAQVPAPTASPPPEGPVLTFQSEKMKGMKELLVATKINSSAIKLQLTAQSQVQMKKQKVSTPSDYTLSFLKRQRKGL
From the text: Compounds that inhibit the interaction decrease the fluorescence anisotropy which is being used as a read-out for compound screening and for IC50 determination.

IC50, < 0.1 µM:
Cc1c(CN2CCC(Nc3ncnc4sc(CC(F)(F)F)cc34)CC2)ccc2c1cc(C#N)n2Cc1c[nH]nn1 [Compound 311]
N#Cc1cc2cc(CN3CCC(Nc4ncnc5sc(CC(F)(F)F)cc45)CC3)ccc2n1Cc1cc(OCC2CC2)n[nH]1 [Compound 312]
COCCOCCn1cc(Cn2c(C#N)cc3c(C)c(CN4CCC(Nc5ncnc6sc(CC(F)(F)F)cc56)CC4)ccc32)cn1 [Compound 313]
COCCOCC(O)(CO)Cn1c(C#N)cc2cc(CN3CCC(Nc4ncnc5sc(CC(F)(F)F)cc45)CC3)ccc21 (stereo not drawn) [Compound 314]
COCCOCC(O)(CO)Cn1c(C#N)cc2c(C)c(CN3CCC(Nc4ncnc5sc(CC(F)(F)F)cc45)CC3)ccc21 (stereo not drawn) [Compound 315]
COCCOC(CO)Cn1c(C#N)cc2cc(CN3CCC(Nc4ncnc5sc(CC(F)(F)F)cc45)CC3)ccc21 (stereo not drawn) [Compound 316]
N#Cc1cc2cc(CN3CCC(Nc4ncnc5sc(CC(F)(F)F)cc45)CC3)ccc2n1CC(O)(CO)COCC1CCCCC1 (stereo not drawn) [Compound 317]
N#Cc1cc2cc(CN3CCC(Nc4ncnc5sc(CC(F)(F)F)cc45)CC3)ccc2n1Cc1cnn(CCOCC2CC2)c1 [Compound 318]
COCCOCCOC(CO)Cn1c(C#N)cc2cc(CN3CCC(Nc4ncnc5sc(CC(F)(F)F)cc45)CC3)ccc21 (stereo not drawn) [Compound 319]
N#Cc1cc2cc(CN3CCC(Nc4ncnc5sc(CC(F)(F)F)cc45)CC3)ccc2n1CC(CO)OCC1CCCCC1 (stereo not drawn) [Compound 320]
N#Cc1cc2c(CO)c(CN3CCC(Nc4ncnc5sc(CC(F)(F)F)cc45)CC3)ccc2n1CCO [Compound 321]
Cc1nnc(Cn2c(C#N)cc3c(C)c(CN4CCC(Nc5ncnc6sc(CC(F)(F)F)cc56)CC4)ccc32)s1 [Compound 322]
Cc1ncc(Cn2c(C#N)cc3c(C)c(CN4CCC(Nc5ncnc6sc(CC(F)(F)F)cc56)CC4)ccc32)s1 [Compound 323]
N#Cc1cc2c(CO)c(CN3CCC(Nc4ncnc5sc(CC(F)(F)F)cc45)CC3)ccc2n1CC(N)=O [Compound 325]
Cc1c(CN2CCC(Nc3ncnc4sc(CC(F)(F)F)cc34)CC2)ccc2c1cc(C#N)n2Cc1nccs1 [Compound 326]
Cc1nn[nH]c1Cn1c(C#N)cc2c(C)c(CN3CCC(Nc4ncnc5sc(CC(F)(F)F)cc45)CC3)ccc21 [Compound 327]
Cc1c(CN2CCC(Nc3ncnc4sc(CC(F)(F)F)cc34)CC2)ccc2c1cc(C#N)n2CCc1cccnc1 [Compound 328]
Cc1c(CN2CCC(Nc3ncnc4sc(CC(F)(F)F)cc34)CC2)ccc2c1cc(C#N)n2CCN1CCCCC1 [Compound 329]
Cc1cn[nH]c1Cn1c(C#N)cc2c(C)c(CN3CCC(Nc4ncnc5sc(CC(F)(F)F)cc45)CC3)ccc21 [Compound 330]
Cc1c(CN2CCC(Nc3ncnc4sc(CC(F)(F)F)cc34)CC2)ccc2c1cc(C#N)n2Cc1cc(O)n[nH]1 [Compound 331]
Cc1c(CN2CCC(Nc3ncnc4sc(CC(F)(F)F)cc34)CC2)ccc2c1cc(C#N)n2Cc1ncc[nH]1 [Compound 332]
N#Cc1cc2cc(CN3CCC(Nc4ncnc5sc(CC(F)(F)F)cc45)CC3)ccc2n1CC(O)(CO)CN1CCOCC1 (stereo not drawn) [Compound 333]
Cc1nnc(Cn2c(C#N)cc3c(C)c(CN4CCC(Nc5ncnc6sc(CC(F)(F)F)cc56)CC4)ccc32)o1 [Compound 334]
N#Cc1cc2c(CO)c(CN3CCC(Nc4ncnc5sc(CC(F)(F)F)cc45)CC3)ccc2n1Cc1cn[nH]c1 [Compound 335]
